The test system of data set [1] is MRC-5, ref. FTMR cells.
Data set [2] deals with Coronavirus 229E (ATCC VR-740). The class given is cell-based, human Coronavirus 229E.
Data set [3] has as its system Poliovirus type 1 (ATCC VR-192). The class given is cell-based.
Data set [4] concerns murine Norovirus (cepa S99 Berlin). In kind it is cell-based.
The subject of data set [5] is Vero, ref. FTVE cells.
For data set [6], the system named is Adenovirus type 5 (ATCC VR-5). The class given is cell-based.
Data set [7] concerns SARS-CoV-2. The note with it: cited from earlier work.
Data set [8] concerns Vaccinia virus (Orthopoxvirus). The note with it: monohydrochloride; cited from earlier work.
For data set [9] the following is noted: rats; cited from earlier work.
Data set [10] deals with Bovine Parainfluenza 3 virus (ATCC VR-281). The note with it: 200 ppm in water, after 5 and 60 minutes; monohydrochloride; cited from earlier work.
For data set [11] the following is noted: in vivo; cited from earlier work.
The subject of data set [12] is Herpes simplex virus type 1. The note with it: 200 ppm in water, after 5 and 60 minutes; monohydrochloride; cited from earlier work.

The values that follow come from US20230151302A1, “Cationic surfactants, in particular ethyl lauroyl arginate LAE, for treating or preventing infections and contaminations with Coronavirus” (priority 2020, published 2023).

Where “and” joins values, the source holds several entries; their conditions need not be identical. Identical values can stand only once. Entries after “also recorded” stand apart in the source; their conditions may differ. Like-named read-outs stand apart in the source and are kept apart here. Bounds are passed on as bounds.

`C=O` [Formaldehyde, formaldehyde, reference compound]: the Level of cytotoxicity in data set [1] (human) and in data set [5] (African green monkey) was 0.5 throughout. Moreover, the “log10 TCID50 after 5 min” value in data set [2] is given as 3.58 log10 TCID50. For the same molecule, the “log10 TCID50 after 15 min” value in data set [2] came to 2.49 log10 TCID50. In addition, the “log10 TCID50 after 30 min” value in data set [3] is 5.00 log10 TCID50; in data set [4], 3.16 log10 TCID50; in [6], 2.58 log10 TCID50. Also, the “log10 TCID50 after 60 min” value in data set [3] amounted to 3.07 log10 TCID50; in data set [4], 1.74 log10 TCID50; in data set [6], 1.33 log10 TCID50.

With `CCO` [ethanol], in [7] (ethanol alone at <23%), the “effect on virus infectivity” value is reported as “no effect”.

“L-arginine, N^α-lauroyl-ethyl ester monohydrochloride [LAE®]”: the “antiviral activity, remaining virus (TCID50)” value in data set [8], in [10] and in data set [12] was “No remaining virus was detected; also recorded: effective” in each case. Also, the absorption and metabolization entry in [9] was “fast absorption and metabolization”. For the same molecule, the Level of cytotoxicity in data set [1] and in [5] was 0.5 each time. Besides, the “effectiveness against the virus” value is “effective” in data set [2] and “not effective” in [3]. Besides, the “reduction (maximum effects)” value in [2] was above 4 logo. The “viricidal activity (reduction ≥4 log10)” value in data set [2] is reported as “has viricidal activity”; in [3], “has no viricidal activity”. In [3] (monohydrochloride), the “Reduction with 95% confidence interval after 30 minutes” value is 2.33±0.53 and 1.82±0.52 and 1.49±0.46 and 1.82 ± 0.52 log10 and 1.49 ± 0.46 log10 and 2.33 ± 0.53 log10. In addition, the “toxicity to animals and humans” value in data set [11] is recorded as “completely harmless”.

On to `[H]/N=C(\N/C(=N/[H])NCCCCCCNC(=N)NC(=N)Nc1ccc(Cl)cc1)Nc1ccc(Cl)cc1` [chlorhexidine], for which, in [7], the “reduction in viral titres” value is on record as below 2 log fold.
